# Like-named read-outs stand apart in the source and are kept apart here.
# Legend:
# [1] = Pharmacokinetics of salt forms, single oral dose; type: in vivo, CD-1 mice; details: male, CD-1, mouse, plasma
# Description: (§1) Pharmacokinetics of Hec1 Inhibitor Salts: Pharmacokinetic comparison of different salt forms (HCl, tosylate, mesylate salt) was studied for the compounds as shown in Table 3 below:
# (§2) Formulations for both PO (oral) and IV (intravenous) doses were prepared in saline with 2% Tween 80 and 10% DMSO. Concentrations were adjusted based on the molecular weights of the freebase and salts.
# PO studies: A single dose of 10 mg/kg of each of the three test compounds was orally administered to 21 healthy male CD-1 mice (weight ranged from 18-27 g). The dosing volume was […]. Animals were fasted approximately 16 hours prior to dosing until 4 hours post dosing. Water was available to all animals during the experiment period.
# (§3) Three mice were bled (ca. 1 mL) at each timepoint (0.5, 1, 1.5, 2, 4, 6, and 24 hours post-dose for PO study and 0.083, 0.5, 1, 2, 4, 6, and 24 hours post-dose for IV study) by cardiac puncture and blood was collected into K3EDTA blood collection tubes. Blood samples were centrifuged immediately at 4° C. at 3000 rpm for 10 min. Plasma samples were transferred and stored at −20° C. prior to analysis.
# (§4) The plasma concentrations of 110095 (compound 27 of Table 1, the free base of all three test articles) were determined by LC MS/MS in the positive MRM mode; all doses were normalized to the freebase (110095) concentration. The mean plasma concentration from each time point (n=3) were used to calculate the PK parameters using a non-compartmental model. Pharmacokinetic parameters (Cmax, Tmax, t½, AUC, etc.) were calculated using WinNonlin Software (version 5.3, Pharsight, Sunnyvale Calif. 94086 USA), the results and absolute bioavailability results are presented in Table 6. Table 4 lists mean concentrations (ng/mL) of 110095 in mouse plasma following a single oral dose of 10 mg/kg of 110095-HCl-1007, 110095-03-03 or 110095-02-02 to CD-1 mice, and Table 5 lists mean concentrations (ng/mL) of 110095 in mouse plasma following a single IV dose of 1 mg/kg of 110095-HCl-1007, 110095-03-03 or 110095-02-02 to CD-1 mice. Table 6 lists PK parameters and absolute bioavailability result of 110095-HCl-1007, 110095-03-03 or 110095-02-02 in CD-1 mice.
# [2] = Pharmacokinetics of salt forms, single IV dose; type: in vivo, CD-1 mice; details: male, CD-1, mouse
# Description: as §1, §2
# IV studies: A single dose of 1 mg/kg of each of the three test articles was IV administered to 21 healthy male CD-1 mice (weight ranged from 18-27 g). The dosing volume was 5 mL/kg. Food and water were available to all animals during the experiment period.
# as §3, §4
# Hela = test: Antiproliferation assay (MTS), HeLa cells; type: cell-based; details: Homo sapiens, 96 h
# Description: (§5) Cells were grown at 37° C. in a humidified atmosphere consisting of 5% CO2 and 95% air.
# (§6) Antiproliferation Assays: Cells were plated in a 96-well culture plate with 2000-8000 cells per well. The compounds were prepared in DMSO and used to treat cells in a final concentration of less than 1% DMSO. Compound treatment started after overnight incubation of cells (T0). […] Compound was added to the plate in triplicate wells, and the plates were then incubated for 96 hours. DMSO (compound diluent) was also included and added to the plate in control wells. Cell viability was then determined by MTS assay using the CellTiter 96® aqueous non-radioactive cell proliferation assay system (Promega, Madison, Wis. 53711 USA). A plate reader (Vmax, Molecular Devices, Sunnyvale Calif. 94089 USA) was used to determine the optical densities, and the results were used to deduce concentration-response curves. […] The results were analyzed using linear regression software (GraphPad Prism 5; GraphPad Software Inc. La Jolla Calif. 92037 USA).
# K562 = test: Antiproliferation assay (MTS), K562 cells; type: cell-based; details: Homo sapiens, K562, 96 h
# Description: as §5, §6
# MDA-MB-468 = test: Antiproliferation assay (MTS), MDA-MB-468 cells; type: cell-based; details: Homo sapiens, MDA-MB-468, 96 h
# Description: as §5, §6
# MDA-MB-231 = test: Antiproliferation assay (MTS), MDA-MB-231 cells; type: cell-based; details: Homo sapiens, MDA-MB-231, 96 h
# Description: as §5, §6
# [3] = Table 1, read-out: Antiproliferative IC50 Hela
# [4] = Table 1, read-out: Antiproliferative IC50 K562
# [5] = Table 1, read-out: Antiproliferative IC50 MDA-MB-468
# [6] = read-out: Antiproliferative IC50 MDA-MB-231, Table 1
smiles,measurement,setting,value
COCCOc1cnc(Sc2cc(C)c(-c3csc(NC(=O)c4ccncc4)n3)c(C)c2)cn1.Cl [110095-HCl-1007],AUC(0-inf),[1]; PO 10.0 mg/kg,25100 ng·h/mL
same,AUC(0-t),[1]; PO 10.0 mg/kg,25100 ng·h/mL
same,Cmax,[1]; PO 10.0 mg/kg,4060 ng/mL
same,MRT,[1]; PO 10.0 mg/kg,4.11 h
same,Tmax,[1]; PO 10.0 mg/kg,1 h
same,half-life,[1]; PO 10.0 mg/kg,2.81 h
same,bioavailability,"[1]; PO 10.0 mg/kg vs IV 1.00 mg/kg, read-out: F % (absolute bioavailability)",84%
same,concentration at 0.5 h,"[1]; PO 10 mg/kg, 0.5 h, read-out: mean concentration of 110095 in mouse plasma",1800 ng/mL
same,concentration at 1 h,"[1]; PO 10 mg/kg, 1 h, read-out: mean concentration of 110095 in mouse plasma",4060 ng/mL
same,concentration at […],"[1]; PO 10 mg/kg, 1.5 h, read-out: mean concentration of 110095 in mouse plasma",3660 ng/mL
same,concentration at 2 h,"[1]; PO 10 mg/kg, 2 h, read-out: mean concentration of 110095 in mouse plasma",3560 ng/mL
same,concentration at 4 h,"[1]; PO 10 mg/kg, 4 h, read-out: mean concentration of 110095 in mouse plasma",2170 ng/mL
same,concentration at 6 h,"[1]; PO 10 mg/kg, 6 h, read-out: mean concentration of 110095 in mouse plasma",1140 ng/mL
same,concentration at 24 h,"[1]; PO 10 mg/kg, 24 h, read-out: mean concentration of 110095 in mouse plasma",14.8 ng/mL
same,AUC(0-inf),"[2]; in vivo, iv, 1 mg/kg",3000 ng·h/mL
same,AUC(0-t),"[2]; in vivo, iv, 1 mg/kg",2980 ng·h/mL
same,MRT,"[2]; in vivo, iv, 1 mg/kg",3.3 h
same,half-life,"[2]; in vivo, iv, 1 mg/kg",3.61 h
same,concentration at […],"[2]; plasma, IV 1 mg/kg, 0.083 h, read-out: mean concentration of 110095 in mouse plasma",870 ng/mL
same,concentration at 0.5 h,"[2]; plasma, IV 1 mg/kg, 0.5 h, read-out: mean concentration of 110095 in mouse plasma",684 ng/mL
same,concentration at 1 h,"[2]; plasma, IV 1 mg/kg, 1 h, read-out: mean concentration of 110095 in mouse plasma",549 ng/mL
same,concentration at 2 h,"[2]; plasma, IV 1 mg/kg, 2 h, read-out: mean concentration of 110095 in mouse plasma",422 ng/mL
same,concentration at 4 h,"[2]; plasma, IV 1 mg/kg, 4 h, read-out: mean concentration of 110095 in mouse plasma",202 ng/mL
same,concentration at 6 h,"[2]; plasma, IV 1 mg/kg, 6 h, read-out: mean concentration of 110095 in mouse plasma",93.2 ng/mL
same,concentration at 24 h,"[2]; plasma, IV 1 mg/kg, 24 h, read-out: mean concentration of 110095 in mouse plasma",3.68 ng/mL
"COc1ccc(Sc2cc(C)c(-c3csc(NC(=O)c4ccncc4)n3)c(C)c2)cc1OC [Compound 33, N-{4-(4-(3,4-Dimethoxyphenylsulfanyl)-2,6-dimethylphenyl)thiazol-2-yl}isonicotinamide]",IC50,Hela; [3],57.1 nM
same,IC50,K562; [4],28.3 nM
same,IC50,MDA-MB-468; [5],73 nM
same,IC50,MDA-MB-231; [6],49.4 nM
"Cc1cc(Sc2ccc(O)cc2)cc(C)c1-c1csc(NC(=O)c2ccncc2)n1 [Compound 34, N-{4-(4-(4-Hydroxyphenylsulfanyl)-2,6-dimethylphenyl)thiazol-2-yl}isonicotinamide]",IC50,Hela; [3],302 nM
same,IC50,K562; [4],89.4 nM
same,IC50,MDA-MB-468; [5],279 nM
same,IC50,MDA-MB-231; [6],184 nM
"Cc1cc(Sc2ccc(N)cc2)cc(C)c1-c1csc(NC(=O)c2ccncc2)n1 [Compound 35, N-{4-(4-(4-Aminophenylsulfanyl)-2,6-dimethylphenyl)thiazol-2-yl}isonicotinamide]",IC50,Hela; [3],43.8 nM
same,IC50,K562; [4],26.1 nM
same,IC50,MDA-MB-468; [5],95.8 nM
same,IC50,MDA-MB-231; [6],46.9 nM
"CC(=O)Nc1ccc(Sc2cc(C)c(-c3csc(NC(=O)c4ccncc4)n3)c(C)c2)cc1 [Compound 36, N-{4-(4-(4-Acetylaminophenylsulfanyl)-2,6-dimethylphenyl)thiazol-2-yl}isonicotinamide]",IC50,Hela; [3],24.5 nM
same,IC50,K562; [4],18.9 nM
same,IC50,MDA-MB-468; [5],62.4 nM
same,IC50,MDA-MB-231; [6],44.3 nM
"Cc1cc(Sc2ccc(Br)cc2)cc(C)c1-c1csc(NC(=O)c2ccncc2)n1 [Compound 37, N-{4-(4-(4-Bromophenylsulfanyl)-2,6-dimethylphenyl)thiazol-2-yl}isonicotinamide]",IC50,Hela; [3],243 nM
same,IC50,K562; [4],62.5 nM
same,IC50,MDA-MB-468; [5],226 nM
same,IC50,MDA-MB-231; [6],148 nM
"Cc1cc(Sc2cccc(Cl)c2)cc(C)c1-c1csc(NC(=O)c2ccncc2)n1 [Compound 38, N-{4-(4-(3-Chlorophenylsulfanyl)-2,6-dimethylphenyl)thiazol-2-yl}isonicotinamide]",IC50,Hela; [3],500 nM
same,IC50,K562; [4],128 nM
same,IC50,MDA-MB-468; [5],352 nM
same,IC50,MDA-MB-231; [6],197 nM
"Cc1cc(Sc2ccccc2Cl)cc(C)c1-c1csc(NC(=O)c2ccncc2)n1 [Compound 39, N-{4-(4-(2-Chlorophenylsulfanyl)-2,6-dimethylphenyl)thiazol-2-yl}isonicotinamide]",IC50,Hela; [3],211 nM
same,IC50,K562; [4],36.2 nM
same,IC50,MDA-MB-468; [5],73.9 nM
same,IC50,MDA-MB-231; [6],55.9 nM
"Cc1cc(Sc2ccc(Cl)cc2)cc(C)c1-c1csc(NC(=O)c2ccncc2)n1 [Compound 40, N-{4-(4-(4-Chlorophenylsulfanyl)-2,6-dimethylphenyl)thiazol-2-yl}isonicotinamide]",IC50,Hela; [3],585 nM
same,IC50,K562; [4],93.5 nM
same,IC50,MDA-MB-468; [5],124 nM
same,IC50,MDA-MB-231; [6],200 nM
"Cc1cc(Sc2nccn2C)cc(C)c1-c1csc(NC(=O)c2ccncc2)n1 [Compound 41, N-(4-(2,6-Dimethyl-4-((1-methyl-1H-imidazol-2-yl)thio)phenyl)thiazol-2-yl)isonicotinamide]",IC50,Hela; [3],61.5 nM
same,IC50,K562; [4],31.1 nM
same,IC50,MDA-MB-468; [5],62.9 nM
same,IC50,MDA-MB-231; [6],86.1 nM
"Cc1cc(Sc2ccc(N(S(C)(=O)=O)S(C)(=O)=O)cc2)cc(C)c1-c1csc(NC(=O)c2ccncc2)n1 [Compound 42, N-(4-(2,6-Dimethyl-4-((4-(N-(methylsulfonyl)methylsulfonamido)phenyl)thio)phenyl)thiazol-2-yl)isonicotinamide]",IC50,Hela; [3],167 nM
same,IC50,K562; [4],59.3 nM
same,IC50,MDA-MB-468; [5],121 nM
same,IC50,MDA-MB-231; [6],76.6 nM
"Cc1cc(Sc2ccc(NS(C)(=O)=O)cc2)cc(C)c1-c1csc(NC(=O)c2ccncc2)n1 [Compound 43, N-(4-(2,6-Dimethyl-4-((4-(methylsulfonamido)phenyl)thio)phenyl)thiazol-2-yl)isonicotinamide]",IC50,Hela; [3],66.4 nM
same,IC50,K562; [4],26.6 nM
same,IC50,MDA-MB-468; [5],49.4 nM
same,IC50,MDA-MB-231; [6],53.1 nM
"Cc1cc(C)c(-c2csc(NC(=O)Cc3ccncc3)n2)c(C)c1 [Compound 47, N-(4-Mesitylthiazol-2-yl)-2-(pyridin-4-yl)acetamide]",IC50,Hela; [3],619 nM
same,IC50,K562; [4],382 nM
same,IC50,MDA-MB-468; [5],304 nM
same,IC50,MDA-MB-231; [6],312 nM
"COc1ccc(Oc2cc(C)c(-c3csc(NC(=O)c4ccncc4)n3)c(C)c2)cc1 [Compound 48, N-(4-(4-(4-Methoxyphenoxy)-2,6-dimethylphenyl)thiazol-2-yl)isonicotinamide]",IC50,Hela; [3],48.6 nM
same,IC50,K562; [4],34.9 nM
same,IC50,MDA-MB-468; [5],37 nM
same,IC50,MDA-MB-231; [6],32 nM
"COc1ccc(Oc2cc(C)c(-c3csc(NC(=O)c4ccnc(F)c4)n3)c(C)c2)cc1 [Compound 49, 2-Fluoro-N-(4-(4-(4-methoxyphenoxy)-2,6-dimethylphenyl)thiazol-2-yl)isonicotinamide]",IC50,Hela; [3],42.7 nM
same,IC50,K562; [4],16.3 nM
same,IC50,MDA-MB-468; [5],40 nM
same,IC50,MDA-MB-231; [6],20 nM
"Cc1cc(C)c(-c2csc(NC(=O)Cc3ccncc3)n2)c(C)c1 [II-93, N-(4-Mesitylthiazol-2-yl)-2-(pyridin-4-yl)acetamide]",IC50,"Hela; Table 2, read-out: Antiproliferative IC50 Hela",620 nM
same,IC50,"K562; Table 2, read-out: Antiproliferative IC50 K562",380 nM
same,IC50,"MDA-MB-468; Table 2, read-out: Antiproliferative IC50 MDA-MB-468",300 nM
same,IC50,"MDA-MB-231; read-out: Antiproliferative IC50 MDA-MB-231, Table 2",310 nM
